Source: patent US6653307B2, “1-aryl-4-oxo-1,4-dihydro-3-quinolinecarboxamides as antiviral agents” (Pharmacia & Upjohn Company, priority 2000, dated 2003)

How the values were obtained:
HSV polymerase = HSV polymerase (Human herpesvirus 1, UniProt P04293); test: HSV polymerase assay (Table 1); format: biochemical
Experimental: [Worded in the source for another target; this target is reported under the same test.] (§1) The HCMV polymerase assay is performed using a scintillation proximity assay (SPA) as described in several references, such as N.D. Cook, et al., Pharmaceutical Manufacturing International, pages 49-53 (1992); K. Takeuchi, Laboratory Practice, September issue (1992); U.S. Pat. No. 4,568,649 (1986); which are incorporated by reference herein. Reactions are performed in 96-well plates. The assay is conducted in 100 μl volume with 5.4 mM HEPES (pH 7.5), 11.7 mM KCl, 4.5 mM MgCl2, 0.36 mg/ml BSA, and 90 nM ^3H-dTTP. Assays are run with and without CHAPS, (3-[(3-cholamidopropyl)-dimethylammonio]-1-propane-sulfonate) at a final concentration of 2 mM. HCMV polymerase is diluted in enzyme dilution buffer containing 50% glycerol, 250 mM NaCl, 10 mM HEPES (pH 7.5), 100 μg/ml BSA, and 0.01% sodium azide. The HCMV polymerase, which is expressed in recombinant baculovirus-infected SF-9 cells and purified according to literature procedures, is added at 10% (or 10 μl) of the final reaction volume, i.e., […]. Compounds are diluted in 50% DMSO and 10 μl are added to each well. Control wells contain an equivalent concentration of DMSO. Unless noted otherwise, reactions are initiated via the addition of 6 nM biotinylated poly(dA)-oligo(dT) template/primer to reaction mixtures containing the enzyme, substrate, and compounds of interest. Plates are incubated in a 25 C or 37 C H2O bath and terminated via the addition of 40 μl/reaction of 0.5 M EDTA (pH 8) per well. Reactions are terminated within the time-frame during which substrate incorporation is linear and varied depending upon the enzyme and conditions used, i.e., 30 min. for HCMV polymerase. Ten μl of streptavidin-SPA beads (20 mg/ml in PBS/10% glycerol) are added following termination of the reaction. Plates are incubated 10 min. at 37 C, then equilibrated to room temperature, and counted on a Packard Topcount. Linear regressions are performed and IC50's are calculated using computer software. A modified version of the above HCMV polymerase assay is performed as described above, but with the following changes: Compounds are diluted in 100% DMSO until final dilution into assay buffer. In the previous assay, compounds are diluted in 50% DMSO. 4.5 mM dithiotherotol (DTT) is added to the polymerase buffer.

HCMV polymerase = molecular target: T1, HCMV polymerase (Human cytomegalovirus, UniProt P08546); test: HCMV polymerase scintillation proximity assay (SPA); format: biochemical; settings: 3H-dTTP incorporation
T1 construct: made in house; host or cells: recombinant baculovirus-infected SF-9 cells
Experimental: as §1

VZV polymerase = VZV polymerase (Varicella-zoster virus, UniProt P09252); test: VZV polymerase assay (Table 1); format: biochemical
Experimental: [Worded in the source for another target; this target is reported under the same test.] as §1

T1 sequence (P08546 whole entry): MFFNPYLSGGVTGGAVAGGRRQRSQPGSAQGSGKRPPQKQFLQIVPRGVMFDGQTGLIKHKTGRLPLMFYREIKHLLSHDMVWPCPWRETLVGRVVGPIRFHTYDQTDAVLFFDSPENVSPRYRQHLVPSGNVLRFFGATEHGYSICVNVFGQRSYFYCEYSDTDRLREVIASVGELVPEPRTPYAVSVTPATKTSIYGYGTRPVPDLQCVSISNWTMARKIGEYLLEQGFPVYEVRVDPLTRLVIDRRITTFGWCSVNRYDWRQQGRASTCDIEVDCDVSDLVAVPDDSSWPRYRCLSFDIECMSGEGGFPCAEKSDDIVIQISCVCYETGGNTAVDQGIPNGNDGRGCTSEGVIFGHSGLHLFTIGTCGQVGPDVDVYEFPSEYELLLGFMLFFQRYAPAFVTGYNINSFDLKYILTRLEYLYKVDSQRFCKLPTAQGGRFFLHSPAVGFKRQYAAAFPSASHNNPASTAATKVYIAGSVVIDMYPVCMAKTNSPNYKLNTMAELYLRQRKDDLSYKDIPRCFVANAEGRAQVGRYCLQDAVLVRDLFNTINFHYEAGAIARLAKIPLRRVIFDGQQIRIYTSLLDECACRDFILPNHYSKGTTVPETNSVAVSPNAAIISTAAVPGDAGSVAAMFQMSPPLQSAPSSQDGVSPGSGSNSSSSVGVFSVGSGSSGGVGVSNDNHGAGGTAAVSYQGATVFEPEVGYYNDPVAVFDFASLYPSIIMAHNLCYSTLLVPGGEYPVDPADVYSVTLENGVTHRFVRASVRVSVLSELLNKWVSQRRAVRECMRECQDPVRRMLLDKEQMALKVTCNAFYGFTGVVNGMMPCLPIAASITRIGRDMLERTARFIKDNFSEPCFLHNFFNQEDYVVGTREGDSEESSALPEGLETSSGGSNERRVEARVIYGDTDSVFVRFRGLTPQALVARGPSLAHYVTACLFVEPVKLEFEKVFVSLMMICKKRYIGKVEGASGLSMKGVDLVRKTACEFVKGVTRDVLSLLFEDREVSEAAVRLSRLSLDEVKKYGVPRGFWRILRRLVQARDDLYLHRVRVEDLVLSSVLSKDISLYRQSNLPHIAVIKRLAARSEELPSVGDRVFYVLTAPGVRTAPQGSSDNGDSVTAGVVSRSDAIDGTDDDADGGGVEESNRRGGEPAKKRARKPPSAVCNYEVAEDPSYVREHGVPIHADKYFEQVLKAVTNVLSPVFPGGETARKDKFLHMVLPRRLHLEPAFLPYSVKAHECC
VZV polymerase, sequence (P09252 whole entry): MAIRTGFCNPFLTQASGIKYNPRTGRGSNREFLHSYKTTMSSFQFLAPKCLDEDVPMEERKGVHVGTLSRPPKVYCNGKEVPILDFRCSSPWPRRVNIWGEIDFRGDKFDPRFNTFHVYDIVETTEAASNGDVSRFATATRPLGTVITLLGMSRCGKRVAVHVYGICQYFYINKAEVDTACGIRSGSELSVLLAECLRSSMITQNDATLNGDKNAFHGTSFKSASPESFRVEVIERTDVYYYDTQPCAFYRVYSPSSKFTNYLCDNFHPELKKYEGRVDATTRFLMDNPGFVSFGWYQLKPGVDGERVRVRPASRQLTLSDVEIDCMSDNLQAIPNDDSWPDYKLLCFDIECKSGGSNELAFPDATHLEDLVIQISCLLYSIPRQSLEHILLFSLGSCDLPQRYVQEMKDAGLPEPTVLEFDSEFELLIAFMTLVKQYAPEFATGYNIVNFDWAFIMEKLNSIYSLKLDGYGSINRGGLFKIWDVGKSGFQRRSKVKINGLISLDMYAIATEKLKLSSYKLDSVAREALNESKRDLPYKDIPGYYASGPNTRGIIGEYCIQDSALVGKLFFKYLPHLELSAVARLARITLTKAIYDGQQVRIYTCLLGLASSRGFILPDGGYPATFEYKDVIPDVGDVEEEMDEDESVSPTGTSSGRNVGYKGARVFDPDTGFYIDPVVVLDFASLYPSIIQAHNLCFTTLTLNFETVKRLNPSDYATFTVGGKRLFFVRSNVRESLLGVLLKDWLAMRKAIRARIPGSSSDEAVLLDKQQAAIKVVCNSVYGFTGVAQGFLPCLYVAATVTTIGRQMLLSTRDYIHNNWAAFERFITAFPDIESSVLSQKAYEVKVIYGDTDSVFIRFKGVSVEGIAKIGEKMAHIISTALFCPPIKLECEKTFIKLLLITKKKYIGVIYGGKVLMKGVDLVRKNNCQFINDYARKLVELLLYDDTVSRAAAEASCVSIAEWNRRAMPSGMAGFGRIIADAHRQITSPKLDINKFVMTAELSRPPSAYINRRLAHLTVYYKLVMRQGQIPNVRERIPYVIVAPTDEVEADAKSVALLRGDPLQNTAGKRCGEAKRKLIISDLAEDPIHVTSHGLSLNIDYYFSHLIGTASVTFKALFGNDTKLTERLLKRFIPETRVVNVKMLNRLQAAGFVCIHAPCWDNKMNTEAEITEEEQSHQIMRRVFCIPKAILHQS
HSV polymerase, sequence (P04293 whole entry): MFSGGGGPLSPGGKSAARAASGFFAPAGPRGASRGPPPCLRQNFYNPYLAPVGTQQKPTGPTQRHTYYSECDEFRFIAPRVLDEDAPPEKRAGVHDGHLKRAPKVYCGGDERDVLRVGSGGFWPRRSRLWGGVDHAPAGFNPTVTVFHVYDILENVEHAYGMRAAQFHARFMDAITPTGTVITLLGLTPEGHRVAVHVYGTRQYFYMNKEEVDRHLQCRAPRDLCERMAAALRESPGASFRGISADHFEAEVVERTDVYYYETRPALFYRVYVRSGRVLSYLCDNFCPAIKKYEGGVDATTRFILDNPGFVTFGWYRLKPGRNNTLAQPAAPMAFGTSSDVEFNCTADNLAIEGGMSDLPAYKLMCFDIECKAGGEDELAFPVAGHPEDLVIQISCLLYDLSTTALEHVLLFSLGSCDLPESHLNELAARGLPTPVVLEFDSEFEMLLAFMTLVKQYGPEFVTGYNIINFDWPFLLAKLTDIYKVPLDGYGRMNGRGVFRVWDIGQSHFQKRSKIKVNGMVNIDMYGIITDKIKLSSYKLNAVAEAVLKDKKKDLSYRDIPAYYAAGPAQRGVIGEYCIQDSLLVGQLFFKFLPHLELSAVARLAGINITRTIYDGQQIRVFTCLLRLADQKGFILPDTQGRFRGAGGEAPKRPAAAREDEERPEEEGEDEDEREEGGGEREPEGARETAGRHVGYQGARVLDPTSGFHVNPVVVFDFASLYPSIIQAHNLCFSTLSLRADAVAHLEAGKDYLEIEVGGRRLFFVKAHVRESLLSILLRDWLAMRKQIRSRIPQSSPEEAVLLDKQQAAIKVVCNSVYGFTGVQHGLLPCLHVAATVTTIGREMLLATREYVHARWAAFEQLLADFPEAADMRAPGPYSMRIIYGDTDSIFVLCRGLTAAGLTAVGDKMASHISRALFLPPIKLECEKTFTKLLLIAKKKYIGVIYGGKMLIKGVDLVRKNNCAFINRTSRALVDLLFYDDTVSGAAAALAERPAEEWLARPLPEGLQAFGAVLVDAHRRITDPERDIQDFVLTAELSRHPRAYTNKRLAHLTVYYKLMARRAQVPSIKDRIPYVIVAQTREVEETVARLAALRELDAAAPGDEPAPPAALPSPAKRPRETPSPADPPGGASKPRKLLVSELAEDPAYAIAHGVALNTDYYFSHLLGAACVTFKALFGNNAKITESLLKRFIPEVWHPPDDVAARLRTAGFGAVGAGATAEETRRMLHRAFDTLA

SMILES | melting point [°C] | IC50 (HSV polymerase) [µM] | IC50 (HCMV polymerase) [µM] | IC50 (VZV polymerase) [µM]
Cc1ccccc1-n1cc(C(=O)NCc2ccc(Cl)cc2)c(=O)c2cc(CN3CCOCC3)ccc21 [Example 2, N-(4-Chlorobenzyl)-1-(2-methylphenyl)-6-(4-morpholinylmethyl)-4-oxo-1,4-dihydro-3-quinolinecarboxamide] | 148 to 150 |  | 3 | 
O=C(NCc1ccc(Cl)cc1)c1cn(-c2cccc(I)c2)c2ccc(CN3CCOCC3)cc2c1=O [Example 3, N-(4-Chlorobenzyl)-1-(3-iodophenyl)-6-(4-morpholinylmethyl)-4-oxo-1,4-dihydro-3-quinolinecarboxamide] | 176 to 179 |  | 2.1 | 
CC(C)c1ccc(-n2cc(C(=O)NCc3ccc(Cl)cc3)c(=O)c3cc(CN4CCOCC4)ccc32)cc1 [Example 5, N-(4-Chlorobenzyl)-1-(4-isopropylphenyl)-6-(4-morpholinylmethyl)-4-oxo-1,4-dihydro-3-quinolinecarboxamnide] | 199 to 203 |  | 4 | 
O=C(NCc1ccc(F)cc1)c1cn(-c2ccc(Cl)cc2)c2ccc(CN3CCOCC3)cc2c1=O [Example 7, N-(4-Fluorobenzyl)-1-(4-chlorophenyl)-6-(4-morpholinylmethyl)-4-oxo-1,4-dihydro-3-quinolinecarboxamide] |  |  | 2 | 
O=C(NCc1ccc(Cl)cc1)c1cn(-c2ccccc2CO)c2ccc(CN3CCOCC3)cc2c1=O [Example 8, N-(4-Chlorobenzyl)-1-(2-(hydroxymethyl)phenyl)-6-(4-morpholinylmethyl)-4-oxo-1,4-dihydro-3-quinolinecarboxamide] | 162 to 163 |  | 1.47 | 
O=C(NCc1ccc(Cl)cc1)c1cn(-c2ccc3c(c2)CCC3)c2ccc(CN3CCOCC3)cc2c1=O [Example 9, N-(4-Chlorobenzyl)-1-(2,3-dihydro-1H-inden-5-yl)-6-(4-morpholinylmethyl)-4-oxo-1,4-dihydro-3-quinolinecarboxamide] | 123 to 125 |  | 1.32 | 
O=C(NCc1ccc(Cl)cc1)c1cn(-c2ccc3[nH]ccc3c2)c2ccc(CN3CCOCC3)cc2c1=O [Example 11, N-(4-Chlorobenzyl)-1-(1H-indol-5-yl)-6-(4-morpholinylmethyl)-4-oxo-1,4-dihydro-3-quinolinecarboxamide] | 241 to 243 |  | 1.18 | 
O=C(NCc1ccc(F)cc1)c1cn(-c2ccc3[nH]ccc3c2)c2ccc(CN3CCOCC3)cc2c1=O [Example 12, N-(4-Fluorobenzyl)-1-(1 H-indol-5-yl)-6-(4-morpholinylmethyl)-4-oxo-1,4-dihydro-3-quinolinecarboxamide] | 223 to 225 |  | 2.2 | 
O=C(NCc1ccc(F)cc1)c1cn(-c2cccc(CCO)c2)c2ccc(CN3CCOCC3)cc2c1=O [Example 15, N-(4-Fluorobenzyl)-1-(3-(2-hydroxyethyl)phenyl)-6-(4-morpholinylmethyl)-4-oxo-1,4-dihydro-3-quinolinecarboxamide] | 128 to 132 |  | 1.7 | 
COc1cccc(-n2cc(C(=O)NCc3ccc(Cl)cc3)c(=O)c3cc(CN4CCOCC4)ccc32)c1 [Example 16, N-(4-Chlorobenzyl)-1-(3-methoxyphenyl)-6-(4-morpholinylmethyl)-4-oxo-1,4-dihydro-3-quinolinecarboxamide] | 110 to 113 |  | 1.9 | 
O=C(NCc1ccc(Cl)cc1)c1cn(-c2ccc(N3CCOCC3)cc2)c2ccc(CN3CCOCC3)cc2c1=O [Example 18, N-(4-Chlorobenzyl)-6-(4-morpholinylmethyl)-1-(4-(4-morpholinyl)phenyl)-4-oxo-1,4-dihydro-3-quinolinecarboxamide] | 162 to 164 |  | 1.21 | 
O=C(NCc1ccc(Cl)cc1)c1cn(-c2cccc(C#CCCO)c2)c2ccc(CN3CCOCC3)cc2c1=O [Example 21, N-(4-Chlorobenzyl)-1-(3-(4-hydroxy-1-butynyl)phenyl)-6-(4-morpholinylmethyl)-4-oxo-1,4-dihydro-3-quinolinecarboxamide] | 125 to 128 |  | 1.13 | 

Continued, values first:

melting point [°C] | IC50 (HSV polymerase) [µM] | IC50 (HCMV polymerase) [µM] | IC50 (VZV polymerase) [µM] | SMILES
168 to 169 | 0.55 | 0.81 | 0.4 | O=C(NCc1ccc(Cl)cc1)c1cn(-c2ccccc2)c2ccc(CN3CCOCC3)cc2c1=O [Example 1, N-(4-Chlorobenzyl)-6-(4-morpholinylmethyl)-4-oxo-1-phenyl-1,4-dihydro-3-quinolinecarboxamide]
189 to 191 |  | 1.1 |  | O=C(NCc1ccc(Cl)cc1)c1cn(-c2ccc(Cl)cc2)c2ccc(CN3CCOCC3)cc2c1=O [Example 4, N-(4-Chlorobenzyl)-1-(4-chlorophenyl)-6-(4-morpholinylmethyl)-4-oxo-1,4-dihydro-3-quinolinecarboxamide]
189 to 191 |  | 1.1 |  | COc1ccc(-n2cc(C(=O)NCc3ccc(Cl)cc3)c(=O)c3cc(CN4CCOCC4)ccc32)cc1 [Example 6, N-(4-Chlorobenzyl)-1-(4-methoxyphenyl)-6-(4-morpholinylmethyl)-4-oxo-1,4-dihydro-3-quinolinecarboxamide]
188 to 189 |  | 0.89 |  | O=C(NCc1ccc(Cl)cc1)c1cn(-c2ccc3c(c2)OCO3)c2ccc(CN3CCOCC3)cc2c1=O [Example 10, 1-(1,3-Benzodioxol-5-yl)-N-(4-chlorobenzyl)-6-(4-morpholinylmethyl)-4-oxo-1,4-dihydro-3-quinolinecarboxamide]
248 to 250 | 0.54 | 0.73 | 0.24 | O=C(NCc1ccc(Cl)cc1)c1cn(-c2cccc(O)c2)c2ccc(CN3CCOCC3)cc2c1=O [Example 13, N-(4-Chlorobenzyl)-I-(3-hydroxyphenyl)-6-(4-morpholinylmethyl)-4-oxo-1,4-dihydro-3-quinolinecarboxamide]
158 to 160 | 0.7 | 0.82 | 0.43 | O=C(NCc1ccc(Cl)cc1)c1cn(-c2cccc(CCO)c2)c2ccc(CN3CCOCC3)cc2c1=O [Example 14, N-(4-Chlorobenzyl)-1-(3-(2-hydroxyethyl)phenyl)-6-(4-morpholinylmethyl)-4-oxo-1,4-dihydro-3-quinolinecarboxamide]
107 to 110 |  | 1.05 |  | O=C(NCc1ccc(Cl)cc1)c1cn(-c2ccc(F)c(F)c2)c2ccc(CN3CCOCC3)cc2c1=O [Example 19, N-(4-Chlorobenzyl)-1-(3,4-difluorophenyl)-6-(4-morpholinylmethyl)-4-oxo-1,4-dihydro-3-quinolinecarboxamide]
125 to 128 |  | 0.93 |  | O=C(NCc1ccc(Cl)cc1)c1cn(-c2cccc(C#CCCCO)c2)c2ccc(CN3CCOCC3)cc2c1=O [Example 22]
142 to 144 |  | 0.76 |  | O=C(NCc1ccc(Cl)cc1)c1cn(-c2cccc(CCCCCO)c2)c2ccc(CN3CCOCC3)cc2c1=O [Example 23, N-(4-Chlorobenzyl)-1-(3-(5-hydroxypentyl)phenyl)-6-(4-morpholinylmethyl)-4-oxo-1,4-dihydro-3-quinolinecarboxamide]
119 to 121 |  | 0.68 |  | O=C(NCc1ccc(Cl)cc1)c1cn(-c2cccc(CCCCO)c2)c2ccc(CN3CCOCC3)cc2c1=O [Example 24, N-(4-Chlorobenzyl)-1-(3-(4-hydroxybutyl)phenyl)-6-(4-morpholinylmethyl)-4-oxo-1,4-dihydro-3-quinolinecarboxamide]
